Measured values: US6407067B1, “Salts of thrombin inhibitors” (BASF Aktiengesellschaft, priority 1999, dated 2002)

Columns and labels:
[1] = Stability test (storage at 70° C., 1 bar, content by HPLC); type: physicochemical
Protocol: The thermal decomposition of the compounds of the general formula I and II has been investigated in a stability test. […]
The substances were stored at 70° C., 1 bar. Measurements were in HPLC % areas

[2] = Crystallinity assessed by Debye-Scherrer photographs; type: physicochemical; details: isolated solid
Description: The crystallinity of the samples has been assessed on the basis of Debye-Scherrer photographs.

Compound | Stability on storage in an open vessel (relative content by HPLC) ([1]; 0 days) [HPLC % areas] | Stability on storage in an open vessel (relative content by HPLC) ([1]; 7 days) | Stability on storage in an open vessel (relative content by HPLC) ([1]; 14 days) | Debye-Scherrer photograph (crystallinity) [2]
CC(=O)O.N=C(N)c1ccc(CNC(=O)[C@@H]2C=CCN2C(=O)[C@@H](CC2CCCCC2)NCC(=O)O)cn1 [Acetate, N-((Hydroxycarbonyl)methylene)-(R)-cyclohexylalanyl-(S)-3,4-d ehydroproline 6-Amidino-3-picolinylamide Acetate] | 100 | 92.6 HPLC % areas | 87.2 HPLC % areas | amorphous
N-((Hydroxycarbonyl)methylene)-(R)-cyclohexylalanyl-(S)-3,4-dehydroproline 6-Amidino-3-picolinylamide (Betaine) [1st Example] | – | – | – | amorphous
N=C(N)c1ccc(CNC(=O)[C@@H]2C=CCN2C(=O)[C@@H](CC2CCCCC2)NCC(=O)O)cn1.O=C1NS(=O)(=O)c2ccccc21 [Saccharin salt, N-((Hydroxycarbonyl)methylene)-(R)-cyclohexylalanyl-(S)-3,4-dehydroproline 6-Amidino-3-picolinylamide Saccharinate] | 100 | 100 HPLC % areas | 101 HPLC % areas | crystalline
CC1=CC(=O)NS(=O)(=O)O1.N=C(N)c1ccc(CNC(=O)[C@@H]2C=CCN2C(=O)[C@@H](CC2CCCCC2)NCC(=O)O)cn1 [Acesulfame salt, N-((Hydroxycarbonyl)methylene)-(R)-cyclohexylalanyl-(S)-3,4-dehydroproline 6-Amidino-3-picolinylamide Acesulfamate] | 100 | 96,7 HPLC % areas | 88,4 HPLC % areas | crystalline
N=C(N)c1ccc(CNC(=O)[C@@H]2C=CCN2C(=O)[C@@H](CC2CCCCC2)NCC(=O)O)cn1.O=C(O)/C=C/C(=O)O [Fumarate, N-((hydroxycarbonyl)methylene)-(R)-cyclohexylalanyl-(S)-3,4-dehydroproline 6-Amidino-3-picolinylamide Fumarate] | 100 | 87.9 HPLC % areas | 87.1 HPLC % areas | amorphous
